Reference: ChEMBL document CHEMBL1134125, “Piperazinyl benzamidines: synthesis and affinity for the delta opioid receptor” (Bioorg Med Chem Lett, 2001)

Experiments:
Mu-type opioid receptor = Mu-type opioid receptor (Rattus norvegicus, UniProt P33535); test: Inhibition of binding of [3H]DAMGO to opioid receptor mu 1 from rat brain membrane.
[1] = target: Delta-type opioid receptor (Rattus norvegicus, UniProt P33533); test: Inhibition of binding of [3H]-DPDPE to opioid receptor delta 1 from rat brain membrane.
Delta-type opioid receptor, sequence (P33533 whole entry): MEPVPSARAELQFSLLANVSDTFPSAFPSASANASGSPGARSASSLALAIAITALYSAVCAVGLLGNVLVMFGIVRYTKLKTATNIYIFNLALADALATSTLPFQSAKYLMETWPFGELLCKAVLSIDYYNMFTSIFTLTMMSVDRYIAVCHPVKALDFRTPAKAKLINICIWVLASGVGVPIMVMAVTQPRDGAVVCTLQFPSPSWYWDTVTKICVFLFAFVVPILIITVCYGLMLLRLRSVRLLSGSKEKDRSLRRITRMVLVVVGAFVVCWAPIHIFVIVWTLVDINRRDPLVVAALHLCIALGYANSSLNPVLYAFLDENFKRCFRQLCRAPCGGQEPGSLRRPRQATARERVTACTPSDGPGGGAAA

Mu-type opioid receptor, sequence (P33535 whole entry): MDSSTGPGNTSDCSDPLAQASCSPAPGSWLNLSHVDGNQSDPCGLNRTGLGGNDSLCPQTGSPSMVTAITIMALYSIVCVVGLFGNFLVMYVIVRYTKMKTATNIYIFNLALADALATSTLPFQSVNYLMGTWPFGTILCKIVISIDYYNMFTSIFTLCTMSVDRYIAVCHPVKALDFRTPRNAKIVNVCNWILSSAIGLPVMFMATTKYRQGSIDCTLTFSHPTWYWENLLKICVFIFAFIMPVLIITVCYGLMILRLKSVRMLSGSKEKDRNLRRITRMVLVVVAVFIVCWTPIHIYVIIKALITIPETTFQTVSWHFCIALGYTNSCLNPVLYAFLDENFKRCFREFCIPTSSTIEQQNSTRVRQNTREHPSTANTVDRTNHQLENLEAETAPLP

SMILES	Ki (Mu-type opioid receptor)	Ki [1]
CCN1CCN(/C(=N\c2ccccc2F)c2ccc(C(=O)N(CC)CC)cc2)CC1	> 1000 nM	118 nM
C=CCN1C[C@H](C)N(/C(=N\c2ccccc2)c2ccc(C(=O)OC)cc2)C[C@H]1C	–	405 nM
CCCN1CCN(/C(=N\c2cccc(Cl)c2)c2ccc(C(=O)N(CC)CC)cc2)CC1	9530 nM	177 nM
CCN(CC)C(=O)c1ccc(/C(=N/c2ccccc2C(F)(F)F)N2CCN(CCOC)CC2)cc1	2960 nM	22.9 nM
CCN(CC)C(=O)c1ccc(/C(=N/c2ccccc2Cl)N2CCN(CCc3cccs3)CC2)cc1	> 10000 nM	95.3 nM
CCN(CC)C(=O)c1ccc(/C(=N/c2ccccc2Cl)N2CCN(CCOC)CC2)cc1	> 10000 nM	53.5 nM
CCN(CC)C(=O)c1ccc(/C(=N/c2ccccc2C(F)(F)F)N2CCN(CCc3ccccc3)CC2)cc1	1000 nM	545 nM
CCN1CCN(/C(=N\c2ccccc2Cl)c2ccc(C(=O)OC)cc2)CC1	> 1000 nM	222 nM
C=CCN1CCN(/C(=N\c2cccc(Cl)c2)c2ccc(C(=O)N(CC)CC)cc2)CC1	> 10000 nM	157 nM
CCN1CCN(/C(=N\c2cccc(F)c2)c2ccc(C(=O)N(CC)CC)cc2)CC1	> 10000 nM	58.5 nM
CCN(CC)C(=O)c1ccc(/C(=N/c2ccccc2)N2CCN(Cc3ccccc3)CC2)cc1	> 10000 nM	212 nM
CCN(CC)C(=O)c1ccc(/C(=N/c2ccccc2Cl)N2CCN(Cc3ccccc3)CC2)cc1	> 10000 nM	11.8 nM
C=CCN1C[C@H](C)N(/C(=N\c2ccccc2)c2ccc(C(=O)N(CC)CC)cc2)C[C@H]1C	–	170 nM
COC(=O)c1ccc(/C(=N/c2ccccc2)N2CCCN(CCc3ccccc3)CC2)cc1	232 nM	820 nM
CCCN(CCC)C(=O)c1ccc(/C(=N/c2ccccc2OC)N2CCN(CC)CC2)cc1	3910 nM	1020 nM
CCN1CCN(/C(=N\c2cccc(Br)c2)c2ccc(C(=O)N(CC)CC)cc2)CC1	> 10000 nM	57.6 nM
CCN1CCN(/C(=N\c2ccccc2Cl)c2ccc(C(=O)N(CC)CC)cc2)CC1	> 1000 nM	91.1 nM
CCN(CC)C(=O)c1ccc(/C(=N/c2ccccc2)N2CCCN(CCc3ccccc3)CC2)cc1	396 nM	543 nM
C=CCN1CCN(/C(=N\c2ccccc2)c2ccc(C(=O)N(CC)CC)cc2)CC1	1000 nM	859 nM
COC(=O)c1ccc(/C(=N/c2ccccc2Cl)N2CCCN(CCc3ccccc3)CC2)cc1	197 nM	101 nM
CCN(CC)C(=O)c1ccc(/C(=N/c2ccccc2Cl)N2CCCN(CCc3ccccc3)CC2)cc1	618 nM	29.6 nM
CCN1CCN(/C(=N\c2ccccc2)c2ccc(C(=O)N(CC)CC)cc2)CC1	1000 nM	16 nM
CCCN(CCC)C(=O)c1ccc(/C(=N/c2ccccc2Cl)N2CCN(CC)CC2)cc1	3930 nM	292 nM
CCN(CC)C(=O)c1ccc(/C(=N/c2ccccc2C(F)(F)F)N2CCN(Cc3ccccc3)CC2)cc1	1200 nM	1.22 nM
CCN1CCN(/C(=N\c2cccc(Cl)c2)c2ccc(C(=O)N(CC)CC)cc2)CC1	> 1000 nM	63 nM
CCCN1CCN(/C(=N\c2ccccc2Cl)c2ccc(C(=O)OC)cc2)CC1	2070 nM	87.3 nM
C=CCN1CCN(/C(=N\c2ccccc2Cl)c2ccc(C(=O)N(CC)CC)cc2)CC1	7600 nM	20.5 nM
CCN(CC)C(=O)c1ccc(/C(=N/c2ccccc2)N2CCN(CCc3cccs3)CC2)cc1	> 10000 nM	764 nM
CCN1CCN(/C(=N\c2cc(Cl)cc(Cl)c2)c2ccc(C(=O)N(CC)CC)cc2)CC1	> 1000 nM	277 nM
CCN(CC)C(=O)c1ccc(/C(=N/c2ccc(Cl)cc2)N2CCN(Cc3ccccc3)CC2)cc1	> 10000 nM	142 nM
